The subject of this assay is MR49F. Put plainly: animal or person. Conditions: Mus musculus, po, 672 h, read-out: TGI.

Description: Antitumor activity against human MR49F cells xenografted in NOD SCID NSG mouse assessed as tumor growth inhibition at 60 mg/kg/day, po measured twice weekly for 28 days relative to control

For the compound `C[C@](O)(Cn1cc(-c2ccc(F)cc2)nn1)C(=O)Nc1ccc(C#N)c(C(F)(F)F)c1`, the inhibition in vivo at 60 mg/kg/day came out at 95%.

Source of the values: ChEMBL document CHEMBL4808211, “Exploration and Biological Evaluation of Basic Heteromonocyclic Propanamide Derivatives as SARDs for the Treatment of Enzalutamide-Resistant Prostate Cancer” (J Med Chem, 2021).
